Literature values, collected in patent publication US8524202B2, “Tooth whitening compositions and methods” (priority 2008, dated 2013).

Details: at six months; concentrations 16%-18% carbamide peroxide; Brunton et al., 2004

NC(N)=O.OO [carbamide peroxide]
rebound, patients: 40%
